Laboratory results as given in article PMC6006285, “Specific stereochemistry of OP-1074 disrupts estrogen receptor alpha helix 12 and confers pure antiestrogenic activity” (Nature Communications, 2018).
Where two headings read alike, the source gives them in different places.

Assays:
Format in all cases: cell-based
[1] = biological target: T1, glucocorticoid receptor (GR) (Homo sapiens, UniProt P04150); assay: PRE3X-TATA-Luc reporter in HeLa cells transfected with GR; settings: alone or + 32 nM Dex, 22 h
T1 construct: HeLa cells were transfected as above but also with plasmids for full length wild; expressed in transfected cells; host or cells: HeLa
T1 sequence (P04150 1-777): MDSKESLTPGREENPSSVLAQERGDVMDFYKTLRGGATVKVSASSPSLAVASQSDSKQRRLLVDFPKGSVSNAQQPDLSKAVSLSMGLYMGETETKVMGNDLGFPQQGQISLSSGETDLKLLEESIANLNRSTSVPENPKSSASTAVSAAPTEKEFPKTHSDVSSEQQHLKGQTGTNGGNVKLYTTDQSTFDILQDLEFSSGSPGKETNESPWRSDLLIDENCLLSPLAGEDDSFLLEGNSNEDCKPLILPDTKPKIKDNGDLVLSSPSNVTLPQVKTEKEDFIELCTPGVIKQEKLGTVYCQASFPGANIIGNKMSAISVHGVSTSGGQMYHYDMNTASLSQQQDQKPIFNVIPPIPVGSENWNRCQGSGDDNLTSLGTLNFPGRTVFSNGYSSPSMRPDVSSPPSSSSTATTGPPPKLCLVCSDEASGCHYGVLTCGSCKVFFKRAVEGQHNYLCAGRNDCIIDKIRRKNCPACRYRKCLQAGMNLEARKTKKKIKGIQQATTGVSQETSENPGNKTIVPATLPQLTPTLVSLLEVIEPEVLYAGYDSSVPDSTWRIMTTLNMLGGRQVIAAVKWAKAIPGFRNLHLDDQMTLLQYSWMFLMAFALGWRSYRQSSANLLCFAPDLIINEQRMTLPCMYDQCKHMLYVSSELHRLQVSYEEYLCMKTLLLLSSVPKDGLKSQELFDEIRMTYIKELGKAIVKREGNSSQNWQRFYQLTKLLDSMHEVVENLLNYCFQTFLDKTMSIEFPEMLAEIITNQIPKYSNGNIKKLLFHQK
Experimental: (§1) representative experiment. […]
(§2) receptor (AR, (B)), glucocorticoid receptor (GR, (C)), and the B-isoform of the progesterone receptor (PR-B, (D)). HeLa cells were transfected with the designated wild type receptor along with reporter gene PRE3X-TATA-Luc, which is promiscuously activated with known agonists specific for each receptor: R1881 for AR, dexamethasone (Dex) for GR, and medroxyprogesterone acetate (MPA) for PR-B. Each receptor was also dosed with one concentration of known antagonist for each receptor: 32 nM bicalutamide for AR, and 500 nM RU486 for GR and PR. Transfected cells were treated with the designated ligands for 22 hours and luciferase activity assayed. Shown are representative experiments, independently performed at least 3 times. Note that curves for agonists for each receptor were performed in separate experiments. Shown are means with SEM, normalized to percent of 32 nM R1881 for AR, 32 nM Dex for GR, and 0.5 µM MPA for PR-B (except with MPA alone, which was normalized to […]
(§3) either ERα or ERβ, and 85 ng ERE-3x-Luc, containing 3 copies of estrogen-response element (ERE) cloned into pGL4.23 luciferase reporter gene containing a minimal TATA promoter […]
(§4) hours (1.25% total final charcoal dextran stripped FBS). Bright Glo luciferase reagent (Promega) […]

[2] = tested on: estrogen responsive reporter gene, ERE-tk109-Luc, in MCF-7 cells; assay: Inhibition of E2-stimulated transcription of ERE-tk109-Luc reporter gene in MCF-7 cells; settings: Homo sapiens
[3] = biological target: T2, B-isoform of the progesterone receptor (PR-B) (Homo sapiens, UniProt P06401); assay: PRE3X-TATA-Luc reporter in HeLa cells transfected with PR-B; settings: alone or + 500 nM MPA, 22 h
T2 construct: HeLa cells were transfected as above but also with plasmids for full length wild; expressed in transfected cells; host or cells: HeLa
T2 sequence (P06401 1-933): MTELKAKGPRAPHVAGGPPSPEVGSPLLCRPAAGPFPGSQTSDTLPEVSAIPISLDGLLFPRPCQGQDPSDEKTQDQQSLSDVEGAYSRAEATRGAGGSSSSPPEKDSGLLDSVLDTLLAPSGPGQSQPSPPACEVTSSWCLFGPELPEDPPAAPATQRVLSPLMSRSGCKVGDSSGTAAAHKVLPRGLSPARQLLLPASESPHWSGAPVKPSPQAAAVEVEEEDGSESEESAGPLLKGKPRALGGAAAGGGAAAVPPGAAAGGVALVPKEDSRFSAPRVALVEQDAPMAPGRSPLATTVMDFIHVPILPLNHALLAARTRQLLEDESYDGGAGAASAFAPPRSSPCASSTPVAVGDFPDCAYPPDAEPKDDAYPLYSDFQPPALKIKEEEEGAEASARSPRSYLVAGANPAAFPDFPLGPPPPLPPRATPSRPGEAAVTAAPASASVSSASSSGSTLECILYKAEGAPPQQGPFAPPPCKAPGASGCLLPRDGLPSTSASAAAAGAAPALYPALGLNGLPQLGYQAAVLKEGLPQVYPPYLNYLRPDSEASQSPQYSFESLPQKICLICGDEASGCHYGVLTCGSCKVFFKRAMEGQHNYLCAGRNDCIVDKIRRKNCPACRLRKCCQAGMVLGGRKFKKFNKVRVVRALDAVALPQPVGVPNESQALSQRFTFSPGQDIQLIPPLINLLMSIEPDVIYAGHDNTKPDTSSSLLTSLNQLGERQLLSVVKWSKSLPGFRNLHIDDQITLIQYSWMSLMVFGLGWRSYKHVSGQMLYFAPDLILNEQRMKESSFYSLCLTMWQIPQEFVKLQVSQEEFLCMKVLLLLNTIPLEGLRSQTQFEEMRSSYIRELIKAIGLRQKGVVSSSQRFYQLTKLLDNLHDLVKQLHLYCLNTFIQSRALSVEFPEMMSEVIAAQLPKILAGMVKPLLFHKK
Experimental: as §1, §2, §3, §4

CC1=C(c2ccc(O)cc2)[C@H](c2ccc(OCCN3CC[C@@H](C)C3)cc2)Oc2cc(O)ccc21 [OP-1074]
Agonist and antagonist activity on GR [1]: lacks agonist and antagonist activity | IC50 ([2]; MCF7, 22 h, read-out: IC50 inhibition of E2-stimulated transcription (Fig. 3a)): 3.2 nM | IC50 ([2]; MCF7, 24 h, read-out: IC50 transcription): 1.8 ± 0.3 nM | Agonist and antagonist activity on PR-B [3]: lacks agonist and antagonist activity
